Data from patent publication US9908912B2, “Triclosan derivatives and uses thereof” (priority 2012, dated 2018).
In brackets after ≈: the same amount, converted by molar mass.

What was measured:
Staph. epidermidis = assay: MIC in Nutrient Broth No. 2; type: cell-based, Staphylococcus epidermidis; details: 3 strains, Nutrient Broth No. 2
Experimental: (§1) Bacteria species as indicated in Table 1 were incubated for approximately 24 hours at 37° C.
(§2) The tests were repeated with the addition of inducers. Methyl glycoside was the main inducer used, but other suitable inducers include isopropyl-β-D-thiogalactopyranoside, p-nitrophenyl-α-L-arabinopyranoside and p-nitrophenyl-β-D-xylopyranoside. Concentration of inducer in all cases was 100 μg/ml.

Str. pyogenes = assay: MIC in Nutrient Agar; type: cell-based, Streptococcus pyogenes; details: Nutrient Agar containing 0.1 μg/ml of inducer; 37° C., 24 hours
Experimental: (§3) The triclosan-glycosides were added to Nutrient Agar (Oxoid CM0003; Thermofisher Scientific) and organisms were transferred onto the plates surface using a multi-point inoculation device (Oxoid Cathra, Thermofisher Scientific). The latter is essentially a metal plate containing a number of needles. Each needle tip (usually 36 per plate) dips into an organism suspension (in phosphate buffered saline; PBS) and the needles are then moved over the agar plate and lowered onto its surface. In this way the growth of colonies of up to 36 different organisms can be observed on one plate.
(§4) Nutrient Agar No. 2 was prepared according to the manufacturers instructions, autoclaved and cooled to 50° C. Test compounds were then added as filter sterilised solutions (50:50 deionised water:ethanol), to give final concentrations from 256 μg/ml to 0 μg/ml in doubling dilutions. […] The mixtures were swirled then four plates (25 ml molten agar) were poured for each concentration. Plates were dried in a laminar flow cabinet then inoculated with overnight cultures of organisms that had been decimally diluted twice in sterile saline solution (approximately 10^7 cfu/ml) using a multi-point inoculator. Plates were then incubated at 37° C. for 24 hours. MICs were determined as the concentration at which no growth was observed.

E. coli = assay: MIC in Nutrient Agar; type: cell-based, Escherichia coli; details: 8 strains; Nutrient Agar containing 0.1 μg/ml of inducer; 37° C., 24 hours
Experimental: as §3, §4

[1] = tested on: Ps. Aeruginosa ATCC 27853; assay: MIC in Nutrient Broth No. 2; type: cell-based; details: Nutrient Broth No. 2
Experimental: as §1, §2

[2] = tested on: Bacillus cereus ATCC 14579; assay: MIC in Nutrient Broth No. 2; type: cell-based; details: Nutrient Broth No. 2
Experimental: as §1, §2

[3] = tested on: Bacillus subtilis NCTC 10073; assay: MIC in Nutrient Broth No. 2; type: cell-based; details: Nutrient Broth No. 2
Experimental: as §1, §2

[4] = tested on: Serratia marcescens OCC 217; assay: MIC in Nutrient Broth No. 2; type: cell-based; details: Nutrient Broth No. 2
Experimental: as §1, §2

Hafnia alvei ATCC 13337 = assay: MIC in Nutrient Broth No. 2; type: cell-based; details: Nutrient Broth No. 2
Experimental: as §1, §2

[5] = tested on: Enterobacter aerogenes ATCC 13048; assay: MIC in Nutrient Broth No. 2; type: cell-based; details: Nutrient Broth No. 2
Experimental: as §1, §2

Proteus vulgaris OCC 195 = assay: MIC in Nutrient Broth No. 2; type: cell-based; details: Nutrient Broth No. 2
Experimental: as §1, §2

[6] = tested on: Aeromonas hydrophila OCC 778; assay: MIC in Nutrient Broth No. 2; type: cell-based; details: Nutrient Broth No. 2
Experimental: as §1, §2

[7] = tested on: Citrobacter freundii OCC 851; assay: MIC in Nutrient Broth No. 2; type: cell-based; details: Nutrient Broth No. 2
Experimental: as §1, §2

[8] = tested on: Enterococcus faecalis ATCC 29212; assay: MIC in Nutrient Broth No. 2; type: cell-based; details: Nutrient Broth No. 2
Experimental: as §1, §2

Escherichia coli = assay: MIC in Nutrient Broth No. 2; type: cell-based; details: 8 strains, Nutrient Broth No. 2
Experimental: as §1, §2

[9] = tested on: Proteus mirabilis ATCC 12453; assay: MIC in Nutrient Broth No. 2; type: cell-based; details: Nutrient Broth No. 2
Experimental: as §1, §2

Salmonella = assay: MIC in Nutrient Broth No. 2; type: cell-based; details: 11 strains, Nutrient Broth No. 2
Experimental: as §1, §2

[10] = tested on: Enterococcus faecium ATCC 19434; assay: MIC in Nutrient Broth No. 2; type: cell-based; details: Nutrient Broth No. 2
Experimental: as §1, §2

S. epidermidis = assay: MIC in Nutrient Agar; type: cell-based, Staphylococcus epidermidis; details: 3 strains; Nutrient Agar containing 0.1 μg/ml of inducer; 37° C., 24 hours
Experimental: as §3, §4

E. hermanii = assay: MIC in Nutrient Agar; type: cell-based, Escherichia hermanii; details: Nutrient Agar containing 0.1 μg/ml of inducer; 37° C., 24 hours
Experimental: as §3, §4

In the case of `OC[C@H]1O[C@@H](Oc2cc(Cl)ccc2Oc2ccc(Cl)cc2Cl)[C@H](O)[C@@H](O)[C@@H]1O` [β-D-Glucoside, triclosan-β-D-glucopyranoside], the MIC (Staph. epidermidis; with inducer 100 μg/ml) is reported as 0.5 to 1 µg/mL, the MIC (Staph. epidermidis; without inducer) is reported as 8 to 16 µg/mL and the MIC (Str. pyogenes) is reported as 64 µg/mL (≈ 142 µM). The MIC (E. coli) was 16 to 32 µg/mL, the MIC ([1]; with inducer 100 μg/ml) was over 256 µg/mL and the MIC ([1]; without inducer) was over 256 µg/mL. It also gave an MIC ([2]; with inducer 100 μg/ml) of 128 µg/mL (≈ 283 µM), an MIC ([2]; without inducer) of 256 µg/mL (≈ 567 µM) and an MIC ([3]; with inducer 100 μg/ml) of 32 µg/mL (≈ 70.8 µM). It also gave an MIC ([3]; without inducer) of 256 µg/mL (≈ 567 µM), an MIC ([4]; with inducer 100 μg/ml) of over 256 µg/mL and an MIC ([4]; without inducer) of over 256 µg/mL. The MIC (Hafnia alvei ATCC 13337; with inducer 100 μg/ml) was 0.5 µg/mL (≈ 1.11 µM), the MIC (Hafnia alvei ATCC 13337; without inducer) was 4 µg/mL (≈ 8.86 µM) and the MIC ([5]; with inducer 100 μg/ml) was 16 µg/mL (≈ 35.4 µM). For the same compound, the MIC ([5]; without inducer) was 64 µg/mL (≈ 142 µM), the MIC (Proteus vulgaris OCC 195; with inducer 100 μg/ml) was 8 µg/mL (≈ 17.7 µM) and the MIC (Proteus vulgaris OCC 195; without inducer) was 64 µg/mL (≈ 142 µM). For the same compound, the MIC ([6]; with inducer 100 μg/ml) was 256 µg/mL (≈ 567 µM), the MIC ([6]; without inducer) was over 256 µg/mL and the MIC ([7]; with inducer 100 μg/ml) was 8 µg/mL (≈ 17.7 µM). For the same compound, the MIC ([7]; without inducer) was 64 µg/mL (≈ 142 µM), the MIC ([8]; with inducer 100 μg/ml) was 128 µg/mL (≈ 283 µM) and the MIC ([8]; without inducer) was 16 µg/mL (≈ 35.4 µM). For the same compound, the MIC (Escherichia coli; with inducer 100 μg/ml) was 1 to 8 µg/mL, the MIC (Escherichia coli; without inducer) was 8 to 64 µg/mL and the MIC ([9]; with inducer 100 μg/ml) was 2 µg/mL (≈ 4.43 µM). It also gave an MIC ([9]; without inducer) of 16 µg/mL (≈ 35.4 µM), an MIC (Salmonella; with inducer 100 μg/ml) of 2 to 8 µg/mL and an MIC ([10]; with inducer 100 μg/ml) of 256 µg/mL (≈ 567 µM). For the same compound, the MIC ([10]; without inducer) was over 256 µg/mL, the MIC (S. epidermidis) was 8 to 16 µg/mL and the MIC (E. hermanii) was 16 µg/mL (≈ 35.4 µM).

`O[C@@H]1[C@H](Oc2cc(Cl)ccc2Oc2ccc(Cl)cc2Cl)OC[C@@H](O)[C@H]1O` [β-D-Arabinoside, triclosan-β-D-arabinopyranoside] gave an MIC (Staph. epidermidis; with inducer 100 μg/ml) of 4 to 64 µg/mL, an MIC (Staph. epidermidis; without inducer) of 8 to 16 µg/mL and an MIC (Str. pyogenes) of 64 µg/mL (≈ 152 µM). The MIC (E. coli) was 8 to 32 µg/mL, the MIC ([1]; with inducer 100 μg/ml) was over 256 µg/mL and the MIC ([1]; without inducer) was over 256 µg/mL. It also gave an MIC ([2]; with inducer 100 μg/ml) of 128 µg/mL (≈ 304 µM), an MIC ([2]; without inducer) of 128 µg/mL (≈ 304 µM) and an MIC ([3]; with inducer 100 μg/ml) of 128 µg/mL (≈ 304 µM). The MIC ([3]; without inducer) was 128 µg/mL (≈ 304 µM), the MIC ([4]; with inducer 100 μg/ml) was over 256 µg/mL and the MIC ([4]; without inducer) was over 256 µg/mL. For the same compound, the MIC (Hafnia alvei ATCC 13337; with inducer 100 μg/ml) was 4 µg/mL (≈ 9.49 µM), the MIC (Hafnia alvei ATCC 13337; without inducer) was 4 µg/mL (≈ 9.49 µM) and the MIC ([5]; with inducer 100 μg/ml) was 64 µg/mL (≈ 152 µM). It also gave an MIC ([5]; without inducer) of 128 µg/mL (≈ 304 µM), an MIC (Proteus vulgaris OCC 195; with inducer 100 μg/ml) of 64 µg/mL (≈ 152 µM) and an MIC (Proteus vulgaris OCC 195; without inducer) of 128 µg/mL (≈ 304 µM). The MIC ([6]; with inducer 100 μg/ml) was over 256 µg/mL, the MIC ([6]; without inducer) was over 256 µg/mL and the MIC ([7]; with inducer 100 μg/ml) was 64 µg/mL (≈ 152 µM). For the same compound, the MIC ([7]; without inducer) was 64 µg/mL (≈ 152 µM), the MIC ([8]; with inducer 100 μg/ml) was 256 µg/mL (≈ 607 µM) and the MIC ([8]; without inducer) was 256 µg/mL (≈ 607 µM). For the same compound, the MIC (Escherichia coli; with inducer 100 μg/ml) was 4 to 32 µg/mL, the MIC (Escherichia coli; without inducer) was 8 to 32 µg/mL and the MIC ([9]; with inducer 100 μg/ml) was 16 µg/mL (≈ 37.9 µM). The MIC ([9]; without inducer) was 32 µg/mL (≈ 75.9 µM), the MIC (Salmonella; with inducer 100 μg/ml) was 32 to 64 µg/mL and the MIC (Salmonella; without inducer) was 32 to 64 µg/mL. It also gave an MIC ([10]; with inducer 100 μg/ml) of 256 µg/mL (≈ 607 µM), an MIC ([10]; without inducer) of 256 µg/mL (≈ 607 µM) and an MIC (S. epidermidis) of 16 µg/mL (≈ 37.9 µM). For the same compound, the MIC (E. hermanii) was 32 µg/mL (≈ 75.9 µM).

`OC[C@H]1O[C@H](Oc2cc(Cl)ccc2Oc2ccc(Cl)cc2Cl)[C@H](O)[C@@H](O)[C@H]1O` [α-D-Galactoside, triclosan-α-D-galactopyranoside] gave an MIC (Staph. epidermidis; with inducer 100 μg/ml) of 4 to 256 µg/mL, an MIC (Staph. epidermidis; without inducer) of 8 to 32 µg/mL and an MIC (Str. pyogenes) of over 256 µg/mL. For the same compound, the MIC (E. coli) was 8 to 32 µg/mL, the MIC ([1]; with inducer 100 μg/ml) was over 256 µg/mL and the MIC ([1]; without inducer) was over 256 µg/mL. For the same compound, the MIC ([2]; with inducer 100 μg/ml) was over 256 µg/mL, the MIC ([2]; without inducer) was over 256 µg/mL and the MIC ([3]; with inducer 100 μg/ml) was over 256 µg/mL. It also gave an MIC ([3]; without inducer) of 256 µg/mL (≈ 567 µM), an MIC ([4]; with inducer 100 μg/ml) of over 256 µg/mL and an MIC ([4]; without inducer) of over 256 µg/mL. The MIC (Hafnia alvei ATCC 13337; with inducer 100 μg/ml) was 8 µg/mL (≈ 17.7 µM), the MIC (Hafnia alvei ATCC 13337; without inducer) was 16 µg/mL (≈ 35.4 µM) and the MIC ([5]; with inducer 100 μg/ml) was 64 µg/mL (≈ 142 µM). The MIC ([5]; without inducer) was 128 µg/mL (≈ 283 µM), the MIC (Proteus vulgaris OCC 195; with inducer 100 μg/ml) was 64 µg/mL (≈ 142 µM) and the MIC (Proteus vulgaris OCC 195; without inducer) was 64 µg/mL (≈ 142 µM). It also gave an MIC ([6]; with inducer 100 μg/ml) of over 256 µg/mL, an MIC ([6]; without inducer) of over 256 µg/mL and an MIC ([7]; with inducer 100 μg/ml) of 128 µg/mL (≈ 283 µM). It also gave an MIC ([7]; without inducer) of 64 µg/mL (≈ 142 µM), an MIC ([8]; with inducer 100 μg/ml) of over 256 µg/mL and an MIC ([8]; without inducer) of over 256 µg/mL. It also gave an MIC (Escherichia coli; with inducer 100 μg/ml) of 8 to 64 µg/mL, an MIC (Escherichia coli; without inducer) of 16 to 64 µg/mL and an MIC ([9]; with inducer 100 μg/ml) of 32 µg/mL (≈ 70.8 µM). For the same compound, the MIC ([9]; without inducer) was 32 µg/mL (≈ 70.8 µM), the MIC (Salmonella; with inducer 100 μg/ml) was 32 to 128 µg/mL and the MIC (Salmonella; without inducer) was 32 to 64 µg/mL. The MIC ([10]; with inducer 100 μg/ml) was over 256 µg/mL, the MIC ([10]; without inducer) was over 256 µg/mL and the MIC (S. epidermidis) was 8 µg/mL (≈ 17.7 µM). For the same compound, the MIC (E. hermanii) was 32 µg/mL (≈ 70.8 µM).
